Results as given in patent publication US8877707B2, “Inhibitors of HCV NS5A” (Presidio Pharmaceuticals, Inc., priority 2010, dated 2014).

test system: HCV genotype 1b replicon in Huh 7 cells; experiment: HCV replicon assay (1b_Huh-Luc/Neo-ET cell line, luciferase readout); format: cell-based; conditions: Hepatitis C virus, Huh-7; HCV 1b replicon; read-out: Inhibition of HCV genotype 1b
In short: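 Replicon level was read as luciferase signal after 72 h compound exposure, triplicate wells, starting the day after cells were plated. Cell line: 1b_Huh-Luc/Neo-ET. Values normalised to control as percent, and EC50 fitted with a variable-slope sigmoid; determinations repeated.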

| SMILES | EC50 [nM] |
| --- | --- |
| CC[C@H](C)[C@H](NC(=O)OC)C(=O)N1CCC[C@H]1c1ncc(-c2ccc3nc(-c4ccc(-c5cnc([C@@H]6CCCN6C(=O)[C@H](NC(=O)OC)c6ccccc6)[nH]5)cc4)ccc3c2)[nH]1 [compound 492] | < 1 |
| COC(=O)N[C@H](C(=O)N1CCC[C@H]1c1ncc(-c2ccc3nc(-c4ccc(-c5cnc([C@@H]6CN(C(C)=O)CCN6C(=O)[C@@H](NC(=O)OC)C(C)C)[nH]5)cc4)ccc3c2)[nH]1)C(C)C [compound 493] | < 1 |
| COC(=O)N[C@@H](C(=O)N1CCC[C@H]1c1ncc(-c2ccc3nc(-c4ccc(-c5cnc([C@@H]6CN(C(C)=O)CCN6C(=O)[C@H](NC(=O)OC)c6ccccc6)[nH]5)cc4)ccc3c2)[nH]1)c1ccccc1 [compound 494] | < 1 |
| COC(=O)N[C@H](C(=O)N1CCN(C(C)=O)C[C@H]1c1ncc(-c2ccc(-c3ccc4cc(-c5cnc([C@@H]6CCCN6C(=O)[C@@H](NC(=O)OC)C6CCOCC6)[nH]5)ccc4n3)cc2)[nH]1)C(C)C [compound 495] | < 1 |
| COC[C@H](NC(=O)OC)C(=O)N1CCC[C@H]1c1ncc(-c2ccc3cc(-c4ccc(-c5cnc([C@@H]6CCCN6C(=O)[C@H](NC(=O)OC)c6cccs6)[nH]5)cc4)ccc3c2)[nH]1 [compound 496] | < 1 |
| COC(=O)N[C@H](C(=O)N1CCC[C@H]1c1ncc(-c2ccc3cc(-c4ccc(-c5cnc([C@@H]6CCCN6C(=O)[C@H](NC(=O)OC)c6cccs6)[nH]5)cc4)ccc3c2)[nH]1)C(C)C [compound 497] | < 1 |
| COC(=O)N[C@H](C(=O)N1CCC[C@H]1c1ncc(-c2ccc3cc(-c4ccc(-c5cnc([C@@H]6CCCN6C(=O)[C@H](NC(=O)OC)c6cccs6)[nH]5)cc4)ccc3c2)[nH]1)C(C)O (some centres unmarked) [compound 498] | < 1 |
| COC(=O)N[C@@H](C)C(=O)N1CCC[C@H]1c1ncc(-c2ccc3cc(-c4ccc(-c5cnc([C@@H]6CCCN6C(=O)[C@H](NC(=O)OC)c6ccccc6)[nH]5)nn4)ccc3c2)[nH]1 [compound 499] | < 1 |
| COC(=O)N[C@H](C(=O)N1CCC[C@H]1c1ncc(-c2ccc3cc(-c4ccc(-c5cnc([C@@H]6CCCN6C(=O)[C@H](NC(=O)OC)c6ccccc6)[nH]5)nn4)ccc3c2)[nH]1)[C@@H](C)OC [compound 500] | < 1 |
| COC(=O)N[C@H](C(=O)N1CCC[C@H]1c1ncc(-c2ccc3cc(-c4ccc(-c5cnc([C@@H]6CCCN6C(=O)[C@H](NC(=O)OC)c6ccccc6)[nH]5)nn4)ccc3c2)[nH]1)[C@@H](C)O [compound 501] | < 1 |
| COC(=O)N[C@@H](C)C(=O)N1CCC[C@H]1c1ncc(-c2ccc3cc(-c4ccc(-c5cnc([C@@H]6CCCN6C(=O)[C@H](NC(=O)OC)c6cccs6)[nH]5)cc4)ccc3c2)[nH]1 [compound 502] | < 1 |
| CC[C@H](C)[C@H](NC(=O)OC)C(=O)N1CCC[C@H]1c1ncc(-c2ccc(-c3ccc4cc(-c5cnc([C@@H]6CCCN6C(=O)[C@@H](NC(=O)OC)[C@@H](C)OC)[nH]5)ccc4c3)cc2)[nH]1 [compound 503] | < 1 |
| COC(=O)N[C@H](C(=O)N1CCC[C@H]1c1ncc(-c2ccc(-c3ccc4cc(-c5cnc([C@@H]6CCCN6C(=O)[C@@H](NC(=O)OC)[C@@H](C)OC)[nH]5)ccc4c3)cc2)[nH]1)C1CCCC1 [compound 504] | < 1 |
| CCC(CC)[C@H](NC(=O)OC)C(=O)N1CCC[C@H]1c1ncc(-c2ccc(-c3ccc4cc(-c5cnc([C@@H]6CCCN6C(=O)[C@@H](NC(=O)OC)[C@@H](C)OC)[nH]5)ccc4c3)cc2)[nH]1 [compound 505] | < 1 |
| COC(=O)N[C@H](C(=O)N1CCC[C@H]1c1ncc(-c2ccc3cc(-c4cnc(-c5cnc([C@@H]6CCCN6C(=O)[C@@H](NC(=O)OC)C(C)C)[nH]5)cn4)ccc3c2)[nH]1)C(C)C [compound 506] | < 1 |
| COC(=O)N[C@@H](C(=O)N1CCC[C@H]1c1ncc(-c2ccc3nc(-c4ccc5nc([C@@H]6CCCN6C(=O)[C@H](NC(=O)OC)c6ccccc6)[nH]c5c4)ccc3c2)[nH]1)c1ccccc1 [compound 507] | < 1 |
| O=C(N[C@@H](C(=O)N1CCC[C@H]1c1ncc(-c2ccc3nc(-c4ccc5nc([C@@H]6CCCN6C(=O)[C@H](NC(=O)OC6CCOCC6)c6ccccc6)[nH]c5c4)ccc3c2)[nH]1)c1ccccc1)OC1CCOCC1 [compound 508] | < 1 |
| COC(=O)N[C@H](C(=O)N1CCC[C@H]1c1nc2ccc(-c3ccc4cc(-c5cnc([C@@H]6CCCN6C(=O)[C@H](NC(=O)OC6CCOCC6)c6ccccc6)[nH]5)ccc4n3)cc2[nH]1)C(C)C [compound 509] | < 1 |
| COC(=O)N[C@H](C(=O)N1CCC[C@H]1c1nc2ccc(-c3ccc4cc(-c5cnc([C@@H]6CCCN6C(=O)[C@@H](NC(=O)OC)[C@@H](C)OC)[nH]5)ccc4c3)cc2[nH]1)C(C)C [compound 510] | < 1 |
| CC[C@H](C)[C@H](NC(=O)OC)C(=O)N1CCC[C@H]1c1nc2ccc(-c3ccc4cc(-c5cnc([C@@H]6CCCN6C(=O)[C@@H](NC(=O)OC)[C@@H](C)OC)[nH]5)ccc4c3)cc2[nH]1 [compound 511] | < 1 |
| COC(=O)NC(C(=O)N1CCC[C@H]1c1ncc(-c2ccc3cc(-c4ccc5nc([C@@H]6CCCN6C(=O)C(NC(=O)OC)=C(C)C)[nH]c5c4)ccc3c2)[nH]1)=C(C)C [compound 512] | < 1 |

| SMILES | EC50 [nM] |
| --- | --- |
| COC[C@H](NC(=O)OC)C(=O)N1CCC[C@H]1c1ncc(-c2ccc3cc(-c4ccc5nc([C@@H]6CCCN6C(=O)[C@@H](NC(=O)OC)C(C)C)[nH]c5c4)ccc3c2)[nH]1 [compound 513] | < 1 |
| CC[C@H](C)[C@H](NC(=O)OC)C(=O)N1CCC[C@H]1c1nc2ccc(-c3ccc4cc(-c5cnc([C@@H]6CCCN6C(=O)[C@H](COC)NC(=O)OC)[nH]5)ccc4c3)cc2[nH]1 [compound 514] | < 1 |
| COC(=O)N[C@H](C(=O)N1CCC[C@H]1c1ncc(-c2ccc3cc(-c4ccc5nc([C@@H]6CCCN6C(=O)[C@@H](NC(=O)OC)C6CCCC6)[nH]c5n4)ccc3c2)[nH]1)C1CCCC1 [compound 515] | < 1 |
| COC(=O)N[C@H](C(=O)N1CCC[C@H]1c1ncc(-c2ccc3cc(-c4ccc5nc([C@@H]6CCCN6C(=O)[C@@H](NC(=O)OC)C6CC6)[nH]c5n4)ccc3c2)[nH]1)C1CC1 [compound 516] | < 1 |
| COC(=O)N[C@H](C(=O)N1CCC[C@H]1c1ncc(-c2ccc3cc(-c4ccc5nc([C@@H]6CCCN6C(=O)[C@@H](NC(=O)OC)C6CCCCC6)[nH]c5n4)ccc3c2)[nH]1)C1CCCCC1 [compound 517] | < 1 |
| CCC(CC)[C@H](NC(=O)OC)C(=O)N1CCC[C@H]1c1ncc(-c2ccc3cc(-c4ccc5nc([C@@H]6CCCN6C(=O)[C@@H](NC(=O)OC)C(CC)CC)[nH]c5c4)ncc3c2)[nH]1 [compound 518] | < 1 |
| COC(=O)N[C@H](C(=O)N1CCC[C@H]1c1ncc(-c2ccc3cc(-c4cnc5nc([C@@H]6CCCN6C(=O)[C@@H](NC(=O)OC)[C@@H](C)OC)[nH]c5c4)ccc3c2)[nH]1)[C@@H](C)OC [compound 519] | < 1 |
| CCC(CC)[C@H](NC(=O)OC)C(=O)N1CCC[C@H]1c1ncc(-c2ccc3cc(-c4ccc5nc([C@@H]6CCCN6C(=O)[C@@H](NC(=O)OC)C(CC)CC)[nH]c5n4)ccc3c2)[nH]1 [compound 520] | < 1 |
| CC[C@H](C)[C@H](NC(=O)OC)C(=O)N1CCC[C@H]1c1ncc(-c2ccc3cc(-c4ccc5nc([C@@H]6CCCN6C(=O)[C@@H](NC(=O)OC)[C@@H](C)CC)[nH]c5n4)ccc3c2)[nH]1 [compound 521] | < 1 |
| CC[C@@H](C)[C@H](NC(=O)OC)C(=O)N1CCC[C@H]1c1ncc(-c2ccc3cc(-c4ccc5nc([C@@H]6CCCN6C(=O)[C@@H](NC(=O)OC)[C@H](C)CC)[nH]c5n4)ccc3c2)[nH]1 [compound 522] | < 1 |
| COC(=O)N[C@@H](C(=O)N1CCC[C@H]1c1ncc(-c2ccc3cc(-c4ccc5nc([C@@H]6CCCN6C(=O)[C@H](NC(=O)OC)C6=CCC=CC6)[nH]c5n4)ccc3c2)[nH]1)C1=CCC=CC1 [compound 523] | < 1 |
| CC[C@H](C)[C@H](NC(=O)OC)C(=O)N1CCC[C@H]1c1nc2ccc(-c3ccc4cc(-c5cnc([C@@H]6CCCN6C(=O)[C@@H](NC(=O)OC)[C@@H](C)O)[nH]5)ccc4c3)cc2[nH]1 [compound 524] | < 1 |
| COC(=O)N[C@H](C(=O)N1CCC[C@H]1c1ncc(-c2ccc3cc(-c4ccc5nc([C@@H]6CCCN6C(=O)[C@@H](NC(=O)OC)[C@@H](C)OC)[nH]c5c4)ccc3c2)[nH]1)C(C)C [compound 525] | < 1 |
| CC[C@H](C)[C@H](NC(=O)OC)C(=O)N1CCC[C@H]1c1ncc(-c2ccc3cc(-c4ccc5nc([C@@H]6CCCN6C(=O)[C@@H](NC(=O)OC)[C@@H](C)OC)[nH]c5c4)ccc3c2)[nH]1 [compound 526] | < 1 |
| COC(=O)N[C@H](C(=O)N1CCC[C@H]1c1ncc(-c2ccc3cc(-c4cc5[nH]c([C@@H]6CCCN6C(=O)[C@@H](NC(=O)OC)C(C)C)nc5cn4)ccc3c2)[nH]1)C(C)C [compound 527] | < 1 |
| COC(=O)N[C@H](C(=O)N1CCC[C@H]1c1nc2ccc(-c3ccc4cc(-c5cnc([C@@H]6CCCN6C(=O)[C@@H](NC(=O)OC)[C@@H](C)OC)[nH]5)ccc4c3)cc2[nH]1)C1CCCC1 [compound 528] | < 1 |
| COC(=O)N[C@H](C(=O)N1CCC[C@H]1c1nc2ccc(-c3ccc4cc(-c5cnc([C@@H]6CCCN6C(=O)[C@@H](NC(=O)OC)[C@@H](C)OC)[nH]5)ccc4c3)cc2[nH]1)C1CCCCC1 [compound 529] | < 1 |
| COC(=O)N[C@H](C(=O)N1CCC[C@H]1c1ncc(-c2ccc3cc(-c4ccc5nc([C@@H]6CCCN6C(=O)[C@@H](NC(=O)OC)[C@@H](C)OC)[nH]c5n4)ccc3c2)[nH]1)[C@@H](C)OC [compound 530] | < 1 |
| COC(=O)N[C@H](C(=O)N1CCC[C@H]1c1ncc(-c2ccc3cc(-c4ccc5nc([C@@H]6CCCN6C(=O)[C@@H](NC(=O)OC)C6CCOCC6)[nH]c5c4)nnc3c2)[nH]1)C1CCOCC1 [compound 531] | < 1 |
| COC(=O)N[C@H](C(=O)N1CCC[C@H]1c1nc2ccc(-c3ccc4cc(-c5cnc([C@@H]6CCCN6C(=O)[C@@H](NC(=O)OC)[C@@H](C)OC)[nH]5)ccc4c3)nc2[nH]1)C(C)C [compound 532] | < 1 |
